Results reported in patent publication EP0298385A2, “Cyctostatic anthracyclin derivatives” (BEHRINGWERKE Aktiengesellschaft, priority 1987, dated 1989).
In brackets after ≈: the same amount, converted by molar mass. Read-outs that look alike come from different tables or passages of the source.

Experiments:
L1210 Leukämiezellen = assay: Colony formation of L1210 leukemia cells in soft agar (cytotoxicity in vitro); assay type: cell-based, Maus; conditions: for IC50: Mus musculus
Description: Die zytostatische Wirksamkeit der erfindungsgemäßen Verbindungen wurde anhand von L1210 Leukämiezellen der Maus getestet. Hierzu wurde die Koloniebildung von L1210 Leukämiezellen in Agarplatten herangezogen. Diese Methode dient zum Nachweis des Einflusses der Testsubstanzen auf das Wachstumsverhalten der Zellen über 1 Stunde oder über mehrere Generationen. Bei einer Zellzykluszeit von 10-12 Stunden werden dabei in der Testzeit von 7 Tagen etwa 14 aufeinanderfolgende Generationen beobachtet. Die erfindungsgemäßen zytostatisch wirksamen Substanzen bewirken in diesem Test eine Reduktion der zu beobachtenden Koloniezahl gegenüber einer unbehandelten Kontrollprobe.
Verfahrensweise zur Ermittlung der Koloniebildung von L1210 Leukämiezellen in Soft-Agar
500 Leukämiezellen pro Platte wurden mit unterschiedlichen Konzentrationen der Testsubstanz 1 Stunde bei 37°C inkubiert. Anschließend wurden die Zellen zweimal mit McCoy5A-Medium gewaschen und schließlich in Petrischalen nach Zugabe von 0,3 % Agar ausgegossen. Kontrollen wurden lediglich mit frischem Medium inkubiert. Anstelle der einstündigen Inkubation wurden in manchen Fällen unterschiedliche Konzentrationen der Testsubstanzen der oberen Agarschicht zugemischt, um so eine kontinuierliche Exposition der Zellen über die gesamte Inkubationszeit zu erreichen. Nach Erstarren des Agars wurden die Platten im Brutschrank 7 Tage bei 37°C inkubiert (5 Vol. -% CO₂, 95 % relative Luftfeuchtigkeit). Anschließend wurde die Zahl der entstandenen Kolonien mit einem Durchmesser von mehr als 60 µm gezählt. Die Ergebnisse wurden angegeben als Koloniezahl in behandelten Agarplatten in Prozent der unbehandelten Kontrolle. Aus der so erhaltenen Dosiswirkungskurve wurde die IC₅₀ als Maß für die Wirksamkeit der Substanz ermittelt. Die Ergebnisse für die hier beschriebenen Verbindungen im Vergleich zu Adriamycin sind in der nachfolgenden Tabelle 1 zusammengefaßt.
Die Struktur der hergestellten Verbindungen wurde mittels ¹H-NMR- Spektroskopie, UV-Spektroskopie und HPLC-Technik ermittelt. Der Verlauf der Reaktionen wurde, soweit möglich, dünnschichtchromatographisch auf Kieselgel-Fertigplatten verfolgt. Die Ergebnisse der Zytotoxizitäts-Testung gegen L1210-Zellen in vitro sind in Tabelle 1 zusammengefaßt. Tabelle 1

[1] = Stability / hydrolysis of the spacer-bearing anthracyclines in phosphate-buffered saline, HPLC analysis; assay type: physicochemical
Procedure: Die jeweilige Verbindung wurde bei einer Konzentration von 1 mg/ml in Acetonitril gelöst und mit Phosphat-gepufferter Kochsalzlösung pH 7.2 im Volumenverhältnis 1:100 verdünnt, wobei eine Konzentration von jeweils 10 µg/ml erhalten wurde. Diese Lösungen wurden jeweils bei 37 °C im Dunkeln inkubiert und 20 µl-Aliquote wurden nach definierten Zeiten mittels der HPLC-Technik untersucht. Die Stabilitäten dieser Verbindungen sind in Fig. 1 graphisch dargestellt.
Verbindung 10 wurde, wie vorstehend beschrieben, unrersucht und mittels HPLC-Technik analysiert.
Verbindung 12 wurde analog zu Verbindung 10 hydrolysiert, wobei jedoch ein pH-Wert von 7,4 verwendet wurde.

[2] = 1 h incubation at 37°C, then washed, colonies counted after 7 days
[3] = continuous exposure in agar, 7 days at 37°C, not differentiated by possible hydrolysis products (footnote a)
[4] = 10 µg/ml in phosphate-buffered saline pH 7.2, 37 °C, dark, releases β-Rhodomycin-I directly and via an intermediate

Row | Hydrolyse [1, 4] | Hydrolyse ([1]; as for Verbindung 10 but pH 7,4, 37 °C) | Compound | IC₅₀-Werte gegenüber L1210-Zellen in vitro, 1h-Inkubation (L1210 Leukämiezellen; [2]) | IC₅₀-Werte gegenüber L1210-Zellen in vitro, Dauerinkubation (L1210 Leukämiezellen; [3]) | IC50 (L1210 Leukämiezellen; L1210, 168 h, continuous exposure in agar, 7 days at 37°C, not differentiated by possible hydrolysis products (footnote a), read-out: IC₅₀-Werte gegenüber L1210-Zellen in vitro, Dauerinkubation) | IC50 (L1210 Leukämiezellen; L1210, 1 h incubation at 37°C, then washed, colonies counted after 7 days, read-out: IC₅₀-Werte gegenüber L1210-Zellen in vitro, 1h-Inkubation)
1 | – | – | CC[C@@]1(O)C[C@H](O[C@H]2C[C@H](N(C)C)[C@H](O[C@H]3C[C@@H]4O[C@H]5CC(=O)[C@H](C)O[C@H]5O[C@@H]4[C@H](C)O3)[C@H](C)O2)c2c(O)c3c(c(O)c2[C@H]1O[C@H]1C[C@H](N(C)C)[C@H](O)[C@H](C)O1)C(=O)c1cccc(O)c1C3=O [Cytorhodin-S, reference compound] | 0,013 µg/ml | 0,003 µg/ml | – | –
2 | – | – | COc1cccc2c1C(=O)c1c(O)c3c(c(O)c1C2=O)C[C@@](O)(C(=O)CO)C[C@@H]3O[C@H]1C[C@H](N)[C@H](O)[C@H](C)O1 [Adriamycin, reference compound] | – | – | 0.02 µg/mL (≈ 0.0368 µM) | 0.04 µg/mL (≈ 0.0736 µM)
3 | – | – | CC[C@@]1(O)C[C@H](O[C@H]2C[C@H](N(C)C)[C@H](O)[C@H](C)O2)c2c(O)c3c(c(O)c2[C@H]1O)C(=O)c1cccc(O)c1C3=O [β-Rhodomycin-I, 7-O-(α-L-Rhodosaminyl)-β-rhodomycinon, reference compound] | 0,05 µg/ml | 0,022 µg/ml | – | –
4 | analoges Hydrolyseverhalten | – | CC[C@@]1(O)C[C@H](O[C@H]2C[C@H](N(C)C)[C@H](OC(=O)CCN3C(=O)C=CC3=O)[C@H](C)O2)c2c(O)c3c(c(O)c2[C@H]1O)C(=O)c1cccc(O)c1C3=O [Verbindung 11, 7-O-[4′-O-(3-Maleimidopropionyl)-α-L-rhodosaminyl]-βrhodomycinon] | 0,11 µg/ml | 0,028 µg/ml | – | –
5 | – | analoges Hydrolyseverhalten | 4˝-O-(4-Maleimidobenzoyl)-cytorhodin-S [Verbindung 12] | 0,0095 µg/ml | 0,0028 µg/ml | – | –
6 | analoges Hydrolyseverhalten | – | CC[C@@]1(O)C[C@H](O[C@H]2C[C@H](N(C)C)[C@H](OC(=O)c3ccc(N4C(=O)C=CC4=O)cc3)[C@H](C)O2)c2c(O)c3c(c(O)c2[C@H]1O)C(=O)c1cccc(O)c1C3=O [Verbindung 8] | 0,5 µg/ml | 0,11 µg/ml | – | –

Row | Compound | Hydrolyse [1, 4] | Hydrolyse ([1]; as for Verbindung 10 but pH 7,4, 37 °C) | IC₅₀-Werte gegenüber L1210-Zellen in vitro, 1h-Inkubation (L1210 Leukämiezellen; [2]) | IC₅₀-Werte gegenüber L1210-Zellen in vitro, Dauerinkubation (L1210 Leukämiezellen; [3]) | IC50 (L1210 Leukämiezellen; L1210, 168 h, continuous exposure in agar, 7 days at 37°C, not differentiated by possible hydrolysis products (footnote a), read-out: IC₅₀-Werte gegenüber L1210-Zellen in vitro, Dauerinkubation) | IC50 (L1210 Leukämiezellen; L1210, 1 h incubation at 37°C, then washed, colonies counted after 7 days, read-out: IC₅₀-Werte gegenüber L1210-Zellen in vitro, 1h-Inkubation)
7 | CCC1(O)CC(OC2CC(N(C)C)C(OC(=O)c3ccc(N4C(=O)C=CC4=O)cc3OC(C)=O)C(C)O2)c2c(O)c3c(c(O)c2C1O)C(=O)c1cccc(O)c1C3=O [Verbindung 10, 7-O-[4′-O-(2-Acetoxy-4-maleimidobenzoyl)-α-L-rhodosaminyl]-β-rhodomycinon] | hydrolytisch zersetzt | – | – | – | – | –
